Patent publication US20060240117A1, “Snake powder extract for treatment of cancer” (priority 2002, published 2006)

How the values were obtained:
tumor cell lines = experiment: Tumor cell proliferation, oxygen biosensor; format: cell-based; settings: DMSO, ethanol and PBS extracts; FIGS. 6, 7, 8
Procedure: The following cell lines were utilized in the tests listed above: • Leukemia/Lymphoma: K562, Raji, Jurkatt, CEM; • Breast Carcinoma MCF-7, MDA-MB-231, MD-MB-468; • Prostate Carcinoma LNCaP, PC-3; • Colorectal Carcinoma: HT-29, HCT-116; • Pancreatic Carcinoma: PANC-1; • Gliobastaoma: GL10-1.
The DMSO and ETHANOL extract was prepared by the following process: • 4 g of powder was extracted with each • the extract was evaporated utilizing a speed vacuum centrifuge • when dried the extract was re-suspended in fresh solution at 1 g/ml. • the concentration of extract used ranges from 0.1 to 100 mg/ml
The PBS solution was prepared as follows: • dissolve 1 g/ml of powder within PBS solution • the concentration of extract used ranges from 0.1 to 100 mg/ml
Referring to FIGS. 6, 7, and 8 the effect of snake extract on tumor cell proliferation utilizing the DMSO, ethanol, and PBS solutions, is respectively analyzed. The methodology used to analyze tumor cell proliferation was oxygen biosensor. With this methodology culture plates are coated with an oxygen sensitive fluorescent compound embedded in a gas-permeable and hydrophobic matrix permanently attached to the bottom of a multi-well plate. The amount of fluorescence correlates directly to the rate of oxygen consumption in the well, providing a signal that can be directly correlated to cell growth.

Artemia salina nauplii = experiment: Brine shrimp lethality assay; format: in vivo; settings: 24 h, 27-28° C., triplicate
Procedure: The eggs of brine shrimp, Airtime salina (Leach), are used in monitoring bioactive compounds. The eggs are readily available in pet shops at low cost and remain viable for years in the dry state. The brine shrimp assay has advantages of being rapid (24 hrs), inexpensive, and simple. No aseptic techniques are required. It easily utilizes a large number of organisms for statistical validation and requires no special equipment and a relatively small amount of sample.
The assay was carried out with Artemia salina eggs. 50 mg of Artemia salina eggs in a beaker containing sea salt (6 g), yeast (0.9 mg) and distilled water (150 ml) were incubated at 27-28° C. for 24 hrs. The newly hatched nauplii were concentrated. From this volume, aliquots of 50 μl (approximately 18-20 nauplii) were pipette directly into a 24 well plates containing sea water (sw), −ve control (DMSO+sw), +ve control (emetine) or different concentrations of extracts (62.5-500 μg/ml). Assay was carried out in triplicate. The plates were sealed and incubated at 27-28° C. for 24 h. At the end of the 24-h incubation period, the content of each well was pipette into a watch glass individually. Survival was assessed by scoring the number of dead nauplii using a microscope. Once counts of dead nauplii had been taken, 0.5 ml of methanol was added to kill all remaining nauplii. The contents of each well were then recorded and result tabulated as (X/Y; where X number dead and Y=number of dead and alive).

B16F10 solid tumor = settings: C57BU6 mice; cited from earlier work
angiogenesis = settings: elicited by basic fibroblast growth factor; cited from earlier work
breast cancer cells = settings: cited from earlier work
MDA-MB-435 tumor masses = settings: cited from earlier work

CC[C@@]1(O)C(=O)OCc2c1cc1n(c2=O)Cc2cc3ccccc3nc2-1 [Camptothecin]
inhibition of tumor cell proliferation (tumor cell lines): more effective at inhibiting cell proliferation of different cell lines than the snake powder extract

CC[C@H]1CN2CCc3cc(OC)c(OC)cc3[C@@H]2C[C@@H]1C[C@H]1NCCc2cc(OC)c(OC)cc21 [Emetine]
mortality at 62.5 µg/mL (Artemia salina nauplii; 62.5 μg/ml): 58.2%
mortality at 125 µg/mL (Artemia salina nauplii; 125 μg/ml): 100%
mortality at 250 µg/mL (Artemia salina nauplii; 250 μg/ml): 100%
mortality at 500 µg/mL (Artemia salina nauplii; 500 μg/ml): 100%

Rhodostomin
survival (B16F10 solid tumor): prolonged survival
tumor growth (B16F10 solid tumor): suppressed tumor growth
angiogenesis (angiogenesis): inhibit angiogenesis

Contortrostatin
cytotoxicity to cancer cells (breast cancer cells): not cytotoxic to cancer cells
proliferation of the breast cancer cells (breast cancer cells; in vitro): does not inhibit proliferation
angiogenesis induced by breast cancer (MDA-MB-435 tumor masses; immunohistochemical quantitation of vascular endothelial cells in tumor tissue): inhibiting angiogenesis induced by breast cancer
inhibition of tumor growth (MDA-MB-435 tumor masses; injected daily at 5 microgram per mouse to tumor masses): 74%
